Experimental data reported in patent publication US12448358B2, “Inhibitors of protein arginine deiminase 1 and methods of preparation and use thereof” (University of Massachusetts, priority 2019, dated 2025).
Read-outs that look alike come from different tables or passages of the source.

Experiments:
Assay type in all cases: biochemical
PAD2 = target: T1, PAD2 (Homo sapiens, UniProt Q9Y2J8); assay: Inactivation kinetics of PAD2 (COLDER citrulline assay); details: for Ki: concentration of inhibitor that affords half-maximal inactivation; for Fold PAD selectivity: bracketed value under kinact/KI; for kinact/KI: marks: * nonlinear fit of kobs versus [I], ‡ linear fit, † single kobs
T1 construct: made in house
T1 sequence (Q9Y2J8 whole entry): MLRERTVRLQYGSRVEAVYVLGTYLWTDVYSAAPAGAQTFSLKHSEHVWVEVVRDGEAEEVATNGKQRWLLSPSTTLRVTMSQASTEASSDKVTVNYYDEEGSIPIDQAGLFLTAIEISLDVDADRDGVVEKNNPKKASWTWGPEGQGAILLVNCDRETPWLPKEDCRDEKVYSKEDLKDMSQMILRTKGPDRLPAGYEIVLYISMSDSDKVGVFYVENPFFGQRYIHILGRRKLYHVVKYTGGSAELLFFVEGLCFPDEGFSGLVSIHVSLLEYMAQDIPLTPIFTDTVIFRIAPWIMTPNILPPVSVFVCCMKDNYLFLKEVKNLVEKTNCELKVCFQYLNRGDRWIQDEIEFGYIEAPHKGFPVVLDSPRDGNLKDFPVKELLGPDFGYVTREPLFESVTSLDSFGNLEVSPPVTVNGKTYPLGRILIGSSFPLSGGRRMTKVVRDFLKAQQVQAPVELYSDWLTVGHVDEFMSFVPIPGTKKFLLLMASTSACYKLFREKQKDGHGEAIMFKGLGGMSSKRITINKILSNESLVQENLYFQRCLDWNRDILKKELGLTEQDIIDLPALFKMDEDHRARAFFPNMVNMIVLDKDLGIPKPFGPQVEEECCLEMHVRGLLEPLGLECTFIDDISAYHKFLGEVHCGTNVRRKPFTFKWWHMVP
Procedure: (§1) Inactivation kinetics. […] After 15 min, reactions were quenched with liquid nitrogen and the production of citrulline was quantified using the COLDER assay. (Kearney, et al. Biochemistry 2005, 44, 10570-10582; Knipp, et al. Anal. Biochem. 2000, 286, 257-264.) The time-dependence of PAD inhibition was fit to the following equation 1, […] (1), using Grafit, version 5.0.11, where v is velocity, ν0 is initial velocity, k (or kobs is the pseudo-first-order rate constant of inactivation, and t is time. Upon reaching saturation, the concentration dependence of kobs was fit to equation 2, kobs=kinact[I]/(KI+[I]), (2), using Grafit, version 5.0.11, where kinact is the maximal rate of inactivation, KI is the concentration of inhibitor that affords half-maximal inactivation, and [I] is the concentration of inhibitor. When kobs with [I] varied linearly, kinact/KI was determined from the slope of the line. All the experiments were performed at least in duplicate.

PAD4 = target: T2, PAD4 (Homo sapiens, UniProt Q9UM07); assay: Inactivation kinetics of PAD4 (COLDER citrulline assay); details: for Fold PAD selectivity: bracketed value under kinact/KI; for kinact/KI: marks: * nonlinear fit of kobs versus [I], ‡ linear fit, † single kobs; for Ki: concentration of inhibitor that affords half-maximal inactivation
T2 construct: made in house
T2 sequence (Q9UM07 whole entry): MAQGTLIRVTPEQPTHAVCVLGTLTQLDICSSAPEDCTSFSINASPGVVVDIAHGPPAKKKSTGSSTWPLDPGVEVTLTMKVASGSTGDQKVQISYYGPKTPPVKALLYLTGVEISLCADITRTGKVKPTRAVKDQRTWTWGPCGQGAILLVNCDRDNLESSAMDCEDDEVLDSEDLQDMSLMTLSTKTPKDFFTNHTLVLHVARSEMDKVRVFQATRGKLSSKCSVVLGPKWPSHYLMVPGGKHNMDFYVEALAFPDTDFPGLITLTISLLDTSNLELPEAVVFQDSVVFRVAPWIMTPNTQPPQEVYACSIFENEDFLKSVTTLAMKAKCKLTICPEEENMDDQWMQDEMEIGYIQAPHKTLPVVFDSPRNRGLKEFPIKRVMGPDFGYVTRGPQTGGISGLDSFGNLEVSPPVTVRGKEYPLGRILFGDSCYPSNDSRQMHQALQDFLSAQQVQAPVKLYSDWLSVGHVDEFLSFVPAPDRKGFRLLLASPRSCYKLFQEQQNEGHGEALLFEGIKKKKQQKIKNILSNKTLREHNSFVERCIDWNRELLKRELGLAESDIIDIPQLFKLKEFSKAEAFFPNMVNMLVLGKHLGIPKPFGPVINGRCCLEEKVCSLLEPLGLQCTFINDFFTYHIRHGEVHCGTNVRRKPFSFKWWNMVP
Procedure: as §1

PAD3 = target: T3, PAD3 (Homo sapiens, UniProt Q9ULW8); assay: Inactivation kinetics of PAD3 (COLDER citrulline assay); details: for Fold PAD selectivity: bracketed value under kinact/KI; for kinact/KI: marks: * nonlinear fit of kobs versus [I], ‡ linear fit, † single kobs
T3 construct: made in house
T3 sequence (Q9ULW8 1-664): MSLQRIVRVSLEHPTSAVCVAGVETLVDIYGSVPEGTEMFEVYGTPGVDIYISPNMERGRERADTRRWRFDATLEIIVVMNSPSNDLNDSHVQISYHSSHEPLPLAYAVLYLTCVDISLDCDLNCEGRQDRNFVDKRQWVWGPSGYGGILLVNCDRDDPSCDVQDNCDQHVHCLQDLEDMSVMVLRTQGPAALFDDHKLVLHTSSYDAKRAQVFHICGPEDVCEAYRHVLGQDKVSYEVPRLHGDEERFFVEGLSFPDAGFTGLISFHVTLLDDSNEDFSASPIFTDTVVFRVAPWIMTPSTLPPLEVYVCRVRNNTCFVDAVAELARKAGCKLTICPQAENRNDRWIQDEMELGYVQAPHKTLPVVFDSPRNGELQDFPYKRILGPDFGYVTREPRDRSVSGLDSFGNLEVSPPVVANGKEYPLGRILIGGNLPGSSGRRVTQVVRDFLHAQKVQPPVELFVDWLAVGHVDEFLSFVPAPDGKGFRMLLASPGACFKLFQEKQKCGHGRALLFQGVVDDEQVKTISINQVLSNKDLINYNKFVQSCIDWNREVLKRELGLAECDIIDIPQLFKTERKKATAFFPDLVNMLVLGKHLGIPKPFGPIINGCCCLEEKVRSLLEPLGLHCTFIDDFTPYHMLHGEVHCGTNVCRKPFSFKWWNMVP
Procedure: as §1

PAD1 = target: T4, PAD1 (Homo sapiens, UniProt Q9ULC6); assay: Inactivation kinetics of PAD1 (COLDER citrulline assay); details: for Ki / kinact/KI / kinact / fold less potent than 1 (drop in potency for PAD1): PAD1; for Ki: concentration of inhibitor that affords half-maximal inactivation; for kinact/KI: marks: * nonlinear fit of kobs versus [I], ‡ linear fit, † single kobs; for fold less potent than 1 (drop in potency for PAD1): relative to parent compound 1; for Fold PAD selectivity: PAD1 over the other PADs, bracketed value under kinact/KI
T4 construct: made in house
T4 sequence (Q9ULC6 1-663): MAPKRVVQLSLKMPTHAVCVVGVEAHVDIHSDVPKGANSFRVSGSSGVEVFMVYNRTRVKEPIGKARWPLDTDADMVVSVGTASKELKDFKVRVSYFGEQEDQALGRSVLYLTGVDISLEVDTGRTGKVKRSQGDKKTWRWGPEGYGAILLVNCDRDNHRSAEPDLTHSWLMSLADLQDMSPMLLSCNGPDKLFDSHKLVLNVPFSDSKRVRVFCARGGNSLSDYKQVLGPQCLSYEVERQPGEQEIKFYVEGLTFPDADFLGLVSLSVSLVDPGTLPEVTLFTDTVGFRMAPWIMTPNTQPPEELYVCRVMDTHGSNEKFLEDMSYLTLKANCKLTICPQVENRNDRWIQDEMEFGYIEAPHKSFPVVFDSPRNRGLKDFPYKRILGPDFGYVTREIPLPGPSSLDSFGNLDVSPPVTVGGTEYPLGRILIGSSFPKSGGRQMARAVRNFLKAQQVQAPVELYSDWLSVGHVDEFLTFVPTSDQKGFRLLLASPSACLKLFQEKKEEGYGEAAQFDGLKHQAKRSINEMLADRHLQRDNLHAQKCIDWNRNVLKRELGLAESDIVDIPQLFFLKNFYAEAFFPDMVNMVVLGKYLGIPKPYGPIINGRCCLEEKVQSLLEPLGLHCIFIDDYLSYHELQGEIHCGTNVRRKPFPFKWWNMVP
Procedure: as §1

[1] = read-out: kinact/KI (converted)

| Structure (SMILES) | Ki (PAD2) | Fold PAD selectivity (PAD4) | kinact/KI (PAD4; [1]) | Fold PAD selectivity (PAD3) | kinact/KI (PAD3; [1]) | Fold PAD selectivity (PAD2) | kinact/KI (PAD2; [1]) | Ki (PAD1) | kinact/KI (PAD1; [1]) | Fold PAD selectivity (PAD1) | kinact/KI (PAD4) | kinact/KI (PAD3) | kinact/KI (PAD2) | kinact/KI (PAD1) | other results |
| --- | --- | --- | --- | --- | --- | --- | --- | --- | --- | --- | --- | --- | --- | --- | --- |
| COc1c(I)cc(I)cc1C(=O)N[C@@H](CCCNC(=N)CCl)c1nc2ccccc2[nH]1 [Compound 4] | 208 µM | – | – | – | – | – | – | – | – | – | – | – | – | – | – |
| N=C(CF)NCCC[C@H](NC(=O)c1cc(Cl)cc(Cl)c1O)c1nc2ccccc2[nH]1 [Compound 13] | – | [2] fold | 4.83 M⁻¹ s⁻¹ | [4] fold | 9.17 M⁻¹ s⁻¹ | [1] fold | 2.17 M⁻¹ s⁻¹ | 124 µM | 21.5 M⁻¹ s⁻¹ | 10 fold | – | – | – | – | kinact (PAD1; read-out: kinact (converted)): 0.00267 s⁻¹; fold less potent than 1 (drop in potency for PAD1) (PAD1): 8 fold |
| N=C(CF)NCCC[C@H](NC(=O)c1cc(Br)cc(Br)c1O)c1nc2ccccc2[nH]1 [Compound 11] | – | [2] fold | 4.17 M⁻¹ s⁻¹ | [3] fold | 7 M⁻¹ s⁻¹ | [1] fold | 2.17 M⁻¹ s⁻¹ | 54.8 µM | 54.7 M⁻¹ s⁻¹ | 25 fold | – | – | – | – | kinact (PAD1; read-out: kinact (converted)): 0.003 s⁻¹; fold less potent than 1 (drop in potency for PAD1) (PAD1): 3 fold |
| N=C(CF)NCCC[C@H](NC(=O)c1cccc(I)c1O)c1nc2ccccc2[nH]1 [Compound 17] | – | [2] fold | – | [2] fold | – | [1] fold | – | – | – | 3 fold | 180 ± 20^† M^−1min^−1 | 240 ± 30^† M^−1min^−1 | 110 ± 10^† M^−1min^−1 | 300 ± 30^† M^−1min^−1 | fold less potent than 1 (drop in potency for PAD1) (PAD1): 35 fold |
| N=C(CCl)NCCC[C@H](NC(=O)c1cc(I)ccc1O)c1nc2ccccc2[nH]1 [Compound 16] | – | [2] fold | – | [3] fold | – | [1] fold | – | – | – | [2] fold | 3600 ± 70^‡ M^−1min^−1 | 5000 ± 280^‡ M^−1min^−1 | 1700 ± 70^‡ M^−1min^−1 | 3900 ± 100^‡ M^−1min^−1 | – |
| CC(C)c1cc(C(=O)N[C@@H](CCCNC(=N)CCl)c2nc3ccccc3[nH]2)c(O)c(C(C)C)c1 [Compound 10] | 131 µM | – | – | – | – | – | – | – | – | – | – | – | – | – | – |
| N=C(CCl)NCCC[C@H](NC(=O)c1cc(Br)cc(Br)c1O)c1nc2ccccc2[nH]1 [Compound 12] | 91.5 µM | – | – | – | – | – | – | – | – | – | – | – | – | – | – |
| N=C(CCl)NCCC[C@H](NC(=O)c1cccc(I)c1O)c1nc2ccccc2[nH]1 [Compound 18] | – | [3] fold | – | [1] fold | – | [2] fold | – | – | – | [4] fold | 3160 ± 550^† M^−1min^−1 | 1170 ± 40^† M^−1min^−1 | 2210 ± 270^† M^−1min^−1 | 4100 ± 300^‡ M^−1min^−1 | – |
| N=C(CCl)NCCC[C@H](NC(=O)c1cc(Cl)cc(Cl)c1O)c1nc2ccccc2[nH]1 [Compound 14] | – | [1] fold | – | [2] fold | – | [1] fold | – | – | – | [2] fold | 2600 ± 70^‡ M^−1min^−1 | 5500 ± 300^‡ M^−1min^−1 | 3400 ± 70^‡ M^−1min^−1 | 5300 ± 210^‡ M^−1min^−1 | – |
| N=C(CCl)NCCC[C@H](NC(=O)c1cc(I)cc(I)c1O)c1nc2ccccc2[nH]1 [Compound 2] | 93.7 µM | – | – | – | – | – | – | – | – | – | – | – | – | – | – |
| CC(C)c1cc(C(=O)N[C@@H](CCCNC(=N)CF)c2nc3ccccc3[nH]2)c(O)c(C(C)C)c1 [Compound 9] | – | [1] fold | – | [3] fold | – | [2] fold | – | – | – | [1] fold | 240 ± 20^† M^−1min^−1 | 580 ± 120^† M^−1min^−1 | 400 ± 30^† M^−1min^−1 | 190 ± 20^† M^−1min^−1 | – |

Now from value to compound, other results behind:

| Ki (PAD2) | Fold PAD selectivity (PAD4) | kinact/KI (PAD4; [1]) | Fold PAD selectivity (PAD3) | kinact/KI (PAD3; [1]) | Fold PAD selectivity (PAD2) | kinact/KI (PAD2; [1]) | Ki (PAD1) | kinact/KI (PAD1; [1]) | Fold PAD selectivity (PAD1) | kinact/KI (PAD4) | kinact/KI (PAD3) | kinact/KI (PAD2) | kinact/KI (PAD1) | Structure (SMILES) | other results |
| --- | --- | --- | --- | --- | --- | --- | --- | --- | --- | --- | --- | --- | --- | --- | --- |
| 25.3 µM | [3] fold | – | [1] fold | – | [4] fold | – | 35.2 µM | – | – | 25000 ± 1370* M^−1min^−1 | 8200 ± 30* M^−1min^−1 | 31230 ± 1440* M^−1min^−1 | 72160 ± 10970* M^−1min^−1 | C#Cc1c(I)cc(C(=O)N[C@@H](CCCNC(=N)CCl)c2nc3ccccc3[nH]2)c(O)c1I [Compound 22] | kinact (PAD4): 0.77 min⁻¹; Ki (PAD4): 30.8 µM; kinact (PAD3): 0.8 min⁻¹; Ki (PAD3; concentration of inhibitor that affords half-maximal inactivation): 97.6 µM; kinact (PAD2): 0.79 min⁻¹; kinact (PAD1): 0.0423 s⁻¹ |
| – | [68] fold | 684 M⁻¹ s⁻¹ | [18] fold | 176 M⁻¹ s⁻¹ | [5] fold | 46.7 M⁻¹ s⁻¹ | – | 10 M⁻¹ s⁻¹ | [1] fold | – | – | – | – | N=C(CCl)NCCC[C@H](NC(=O)c1ccccc1O)c1nc2ccccc2[nH]1 [Compound 8] | Ki (PAD4): 25.1 µM; kinact (PAD4; read-out: kinact (converted)): 1.03 min⁻¹ |
| – | [5] fold | 10.7 M⁻¹ s⁻¹ | [4] fold | 8.33 M⁻¹ s⁻¹ | [1] fold | 2 M⁻¹ s⁻¹ | 46.7 µM | 25 M⁻¹ s⁻¹ | 13 fold | – | – | – | – | N=C(CF)NCCC[C@H](NC(=O)c1cc(I)ccc1O)c1nc2ccccc2[nH]1 [Compound 15] | kinact (PAD1; read-out: kinact (converted)): 0.00117 s⁻¹; fold less potent than 1 (drop in potency for PAD1) (PAD1): 7 fold |
| 17.5 µM | – | – | – | – | – | – | – | – | – | – | – | – | – | N=C(CCl)NCCC[C@H](NC(=O)c1cc(I)c(F)c(I)c1O)c1nc2ccccc2[nH]1 [Compound 20] | – |
| – | [1] fold | 12.5 M⁻¹ s⁻¹ | [3] fold | 36 M⁻¹ s⁻¹ | [2] fold | 27.5 M⁻¹ s⁻¹ | 44.3 µM | 97.8 M⁻¹ s⁻¹ | [8] fold | – | – | – | – | COc1c(I)cc(I)cc1C(=O)NC(CCCNC(=N)CF)c1nc2ccccc2[nH]1 (stereo not shown) [Compound 3] | kinact (PAD1; read-out: kinact (converted)): 0.00433 s⁻¹ |
| – | [1] fold | 17.8 M⁻¹ s⁻¹ | [3] fold | 41.2 M⁻¹ s⁻¹ | [1] fold | 12.8 M⁻¹ s⁻¹ | 30.2 µM | 121 M⁻¹ s⁻¹ | [9] fold | – | – | – | – | N=C(CF)NCCC[C@H](NC(=O)c1cc(I)cc(I)c1)c1nc2ccccc2[nH]1 [Compound 5] | kinact (PAD1; read-out: kinact (converted)): 0.00367 s⁻¹ |
